Converted amounts (≈) assume the structure as drawn.
Legend:
Experiment in all cases: minimal inhibitory concentration, two-fold agar dilution
Format in all cases: cell-based
[1] = system: Serratia marcescens ATCC 27117; settings: ATCC27117, Muller-Hinton agar, 37°C, 20 hours, read-out: MIC values against the standard strains
Outline: (§1)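 Compounds were serially diluted two-fold into Mueller-Hinton agar, and each plate was spot-inoculated with the test strain at 10⁷ CFU per ml. Plates were incubated at 37°C for 20 hours before MIC values were read.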

[2] = system: Bacillus cereus ATCC 11778; settings: ATCC11778, Muller-Hinton agar, 37°C, 20 hours, read-out: MIC values against the standard strains
Outline: as §1

[3] = system: Escherichia coli ATCC 10536; settings: ATCC10536, Muller-Hinton agar, 37°C, 20 hours, read-out: MIC values against the standard strains
Outline: as §1

[4] = system: Micrococcus luteus ATCC 9341; settings: ATCC9341, Muller-Hinton agar, 37°C, 20 hours, read-out: MIC values against the standard strains
Outline: as §1

[5] = system: Enterobacter cloacae ATCC 27508; settings: ATCC27508, Muller-Hinton agar, 37°C, 20 hours, read-out: MIC values against the standard strains
Outline: as §1

[6] = system: Escherichia coli ATCC 25922; settings: ATCC25922, Muller-Hinton agar, 37°C, 20 hours, read-out: MIC values against the standard strains
Outline: as §1

[7] = system: Providencia rettgeri ATCC 9250; settings: ATCC9250, Muller-Hinton agar, 37°C, 20 hours, read-out: MIC values against the standard strains
Outline: as §1

[8] = system: Morganella morganii ATCC 8076h; settings: ATCC8076H, Muller-Hinton agar, 37°C, 20 hours, read-out: MIC values against the standard strains
Outline: as §1

[9] = system: Klebsiella pneumoniae ATCC 10031; settings: ATCC10031, Muller-Hinton agar, 37°C, 20 hours, read-out: MIC values against the standard strains
Outline: as §1

[10] = system: Shigella flexneri ATCC 11836; settings: ATCC11836, Muller-Hinton agar, 37°C, 20 hours, read-out: MIC values against the standard strains
Outline: as §1

[11] = system: Staphylococcus aureus ATCC 10537; settings: ATCC10537, Muller-Hinton agar, 37°C, 20 hours, read-out: MIC values against the standard strains
Outline: as §1

[12] = system: Pseudomonas aeruginosa ATCC 25619; settings: ATCC25619, Muller-Hinton agar, 37°C, 20 hours, read-out: MIC values against the standard strains
Outline: as §1

[13] = system: Salmonella typhimurium ATCC 14028; settings: Salmonella enterica; Muller-Hinton agar; 37°C; 20 hours; read-out: MIC values against the standard strains
Outline: as §1

[14] = system: Enterobacter aerogenes ATCC 29751; settings: Klebsiella aerogenes, ATCC29751; Muller-Hinton agar; 37°C; 20 hours; read-out: MIC values against the standard strains
Outline: as §1

[15] = system: Streptococcus faecalis ATCC 29212; settings: Enterococcus faecalis, ATCC29212; Muller-Hinton agar; 37°C; 20 hours; read-out: MIC values against the standard strains
Outline: as §1

[16] = system: Staphylococcus epidermidis ATCC 12228; settings: ATCC12228, Muller-Hinton agar, 37°C, 20 hours, read-out: MIC values against the standard strains
Outline: as §1

[17] = system: Citrobacter freundii ATCC 8090; settings: ATCC8090, Muller-Hinton agar, 37°C, 20 hours, read-out: MIC values against the standard strains
Outline: as §1

[18] = system: Proteus vulgaris ATCC 6059; settings: ATCC6059, Muller-Hinton agar, 37°C, 20 hours, read-out: MIC values against the standard strains
Outline: as §1

[19] = system: Pseudomonas aeruginosa ATCC 27853; settings: ATCC27853, Muller-Hinton agar, 37°C, 20 hours, read-out: MIC values against the standard strains
Outline: as §1

[20] = system: Proteus mirabilis ATCC 25933; settings: ATCC25933, Muller-Hinton agar, 37°C, 20 hours, read-out: MIC values against the standard strains
Outline: as §1

[21] = system: Acinetobacter calcoaceticus ATCC 15437; settings: ATCC15437, Muller-Hinton agar, 37°C, 20 hours, read-out: MIC values against the standard strains
Outline: as §1

[22] = system: Pseudomonas aeruginosa ATCC 10145; settings: ATCC10145, Muller-Hinton agar, 37°C, 20 hours, read-out: MIC values against the standard strains
Outline: as §1

[23] = system: Bacillus megaterium ATCC 9885; settings: Priestia megaterium, ATCC9885; Muller-Hinton agar; 37°C; 20 hours; read-out: MIC values against the standard strains
Outline: as §1

[24] = system: Staphylococcus aureus ATCC 6538p; settings: ATCC6538P, Muller-Hinton agar, 37°C, 20 hours, read-out: MIC values against the standard strains
Outline: as §1

[25] = system: Shigella sonnei ATCC 11060; settings: ATCC11060, Muller-Hinton agar, 37°C, 20 hours, read-out: MIC values against the standard strains
Outline: as §1

Row | SMILES | MIC [1] [µg/mL] | MIC [2] [µg/mL] | MIC [3] [µg/mL] | MIC [4] [µg/mL] | MIC [5] [µg/mL] | MIC [6] [µg/mL] | MIC [7] [µg/mL] | MIC [8] [µg/mL] | MIC [9] [µg/mL] | MIC [10] [µg/mL] | MIC [11] [µg/mL] | MIC [12] [µg/mL] | MIC [13] [µg/mL] | MIC [14] [µg/mL] | MIC [15] [µg/mL] | MIC [16] [µg/mL] | MIC [17] [µg/mL] | MIC [18] [µg/mL] | MIC [19] [µg/mL] | MIC [20] [µg/mL] | other results
1 | C[n+]1ccc(N)nc1SCC1=C(C(=O)[O-])N2C(=O)[C@@H](NC(=O)/C(=N\O)c3csc(N)n3)[C@H]2SC1 [Example 10, 7-[(Z)-2-(2-aminothiazol-4-yl)-2-oxyiminoacetamido]-3-(4-amino-1-methylpyrimidinium-2-yl)thiomethyl-3-cephem-4-carboxylate] | 0.5 (≈ 0.957 µM) | 32 (≈ 61.2 µM) | 0.25 (≈ 0.478 µM) | 0.25 (≈ 0.478 µM) | 0.016 (≈ 0.0306 µM) | 0.25 (≈ 0.478 µM) | ≤ 0.008 | 0.016 (≈ 0.0306 µM) | 0.25 (≈ 0.478 µM) | 0.016 (≈ 0.0306 µM) | 0.25 (≈ 0.478 µM) | 128 (≈ 245 µM) | 0.5 (≈ 0.957 µM) | 0.063 (≈ 0.121 µM) | 8 (≈ 15.3 µM) | 0.063 (≈ 0.121 µM) | 0.063 (≈ 0.121 µM) | 1 (≈ 1.91 µM) | > 128 | 0.25 (≈ 0.478 µM) | MIC [21]: 0.063 µg/mL (≈ 0.121 µM); MIC [22]: > 128 µg/mL; MIC [23]: 0.13 µg/mL (≈ 0.249 µM); MIC [24]: 0.5 µg/mL (≈ 0.957 µM); MIC [25]: 1 µg/mL (≈ 1.91 µM)
2 | CC[n+]1c(SCC2=C(C(=O)[O-])N3C(=O)[C@@H](NC(=O)/C(=N\OC(C)(C)C(=O)O)c4csc(N)n4)[C@H]3SC2)nc(N)c(N)c1N [Example 11, 7-[(Z)-2-(2-aminothiazol-4-yl)-2-(carboxyprop-2-oxyimino)acetamido]-3-(4,5,6-triamino-1-ethylpyrimidinium-2-yl)thiomethyl-3-cephem-4-carboxylate] | 1 (≈ 1.53 µM) | 128 (≈ 196 µM) | 0.031 (≈ 0.0475 µM) | 0.13 (≈ 0.199 µM) | 0.031 (≈ 0.0475 µM) | 0.063 (≈ 0.0965 µM) | 0.063 (≈ 0.0965 µM) | ≤ 0.008 | 0.063 (≈ 0.0965 µM) | 0.063 (≈ 0.0965 µM) | 2 (≈ 3.06 µM) | 2 (≈ 3.06 µM) | 1 (≈ 1.53 µM) | 2 (≈ 3.06 µM) | > 128 | 2 (≈ 3.06 µM) | 0.13 (≈ 0.199 µM) | 0.25 (≈ 0.383 µM) | 4 (≈ 6.13 µM) | 0.25 (≈ 0.383 µM) | MIC [21]: 8 µg/mL (≈ 12.3 µM); MIC [22]: 8 µg/mL (≈ 12.3 µM); MIC [23]: 0.13 µg/mL (≈ 0.199 µM); MIC [24]: 4 µg/mL (≈ 6.13 µM); MIC [25]: 1 µg/mL (≈ 1.53 µM)
3 | CC[n+]1ccc(N)nc1SCC1=C(C(=O)[O-])N2C(=O)[C@@H](NC(=O)/C(=N\OC(C)(C)C(=O)O)c3csc(N)n3)[C@H]2SC1 [Example 12, 7-[(Z)-2-(2-aminothiazol-4-yl)-2-(carboxyprop-2-oxyimino)acetamido]-3-(4-amino-1-ethylpyrimidinium-2-yl)thiomethyl-3-cephem-4-carboxylate] | 0.5 (≈ 0.803 µM) | 128 (≈ 206 µM) | 0.063 (≈ 0.101 µM) | 0.5 (≈ 0.803 µM) | 0.031 (≈ 0.0498 µM) | 0.063 (≈ 0.101 µM) | ≤ 0.008 | 0.016 (≈ 0.0257 µM) | ≤ 0.008 | 0.25 (≈ 0.401 µM) | 2 (≈ 3.21 µM) | 2 (≈ 3.21 µM) | 1 (≈ 1.61 µM) | 2 (≈ 3.21 µM) | 64 (≈ 103 µM) | 2 (≈ 3.21 µM) | 0.13 (≈ 0.209 µM) | 1 (≈ 1.61 µM) | 8 (≈ 12.8 µM) | 1 (≈ 1.61 µM) | MIC [21]: 8 µg/mL (≈ 12.8 µM); MIC [22]: 16 µg/mL (≈ 25.7 µM); MIC [23]: 0.5 µg/mL (≈ 0.803 µM); MIC [24]: 4 µg/mL (≈ 6.42 µM); MIC [25]: 0.5 µg/mL (≈ 0.803 µM)
